{"source": "patent US10350271B2", "about": "“Lipidated peptides for lowering blood glucose” (USTAV ORGANICKE CHEMIE A BIOCHEMIE AKADEMIE VED CR, V.V.I., priority 2014, dated 2019)", "key": {"rat PrRP receptor": {"target": "T1, rat PrRP receptor (Rattus norvegicus, UniProt Q64121)", "T1 construct": "host or cells: RC-4B/C rat pituitary cell line", "T1 sequence (Q64121 1-370)": "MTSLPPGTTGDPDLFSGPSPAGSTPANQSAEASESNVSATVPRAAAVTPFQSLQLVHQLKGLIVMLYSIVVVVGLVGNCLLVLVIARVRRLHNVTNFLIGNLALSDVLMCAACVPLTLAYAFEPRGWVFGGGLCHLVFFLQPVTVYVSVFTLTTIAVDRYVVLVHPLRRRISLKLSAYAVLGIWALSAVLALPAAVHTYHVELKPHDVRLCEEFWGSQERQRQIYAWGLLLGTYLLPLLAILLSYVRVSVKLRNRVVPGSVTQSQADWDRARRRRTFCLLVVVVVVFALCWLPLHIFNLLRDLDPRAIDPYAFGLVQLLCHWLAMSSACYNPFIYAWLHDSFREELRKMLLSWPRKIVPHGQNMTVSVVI", "experiment": "Competitive binding in RC-4B/C rat pituitary cells (125I-rat PrRP31)", "settings": "for % of PrRP31, RC-4B/C rat pituitary cells: affinity relative to PrRP31", "experimental": "(§1) Competitive binding experiments were performed according to Motulsky and Neubig (Motulsky, A., et al., “Analyzing radioligand binding data,” Curr Protoc Neurosci, Chapter 7, Unit 7.5, 2002). Binding experiments were conducted with rat pituitary cells, and with Chinese Hamster Ovary (CHO) cells as follows:\nThe rat pituitary cell line RC-4B/C (ATCC, Manassas, USA) was grown on 24-well plates which had their bottom coated with polyethyleneimine. The cells were grown to the optimal density of 300-450 thousand cells per well. The following agents were used for the experiment: binding buffer (20 mmol·l^−1 HEPES, Ph 7.4; 118 mmol·l^−1 NaCl, 4.7 mmol·l^−1 KCl, 5 mmol·l^−1 MgCl2, 5.5 mmol·l^−1 glucose, 1 mg/ml BSA, 0.1 BPTI), unlabeled analogs of PrRP (i.e. the analog being tested) at a final concentration between 10^−11 to 10^−4 mol·l^−1, and rat ^125I-PrRP31 (labeled with radioactive Iodine-125) at a final concentration of […] (Maixnerová et al., 2011).\n(§2) Plates were incubated for 60 minutes at room temperature. After incubation, the cells were solubilized in 0.1 mol/l solution of NaOH, and the radioactivity bound to the cells was counted using a γ-counter. The experiments were performed in duplicate, and repeated at least three times.\n(§3) Graph Pad Prism Software (San Diego, Calif., USA) was used for evaluating the competitive binding experiments. Nonlinear regression was performed using a onsite binding model."}, "[1]": {"target": "T2, human PrRP receptor GPR10 (Homo sapiens, UniProt P49683)", "T2 construct": "host or cells: CHO cells", "T2 sequence (P49683 1-370)": "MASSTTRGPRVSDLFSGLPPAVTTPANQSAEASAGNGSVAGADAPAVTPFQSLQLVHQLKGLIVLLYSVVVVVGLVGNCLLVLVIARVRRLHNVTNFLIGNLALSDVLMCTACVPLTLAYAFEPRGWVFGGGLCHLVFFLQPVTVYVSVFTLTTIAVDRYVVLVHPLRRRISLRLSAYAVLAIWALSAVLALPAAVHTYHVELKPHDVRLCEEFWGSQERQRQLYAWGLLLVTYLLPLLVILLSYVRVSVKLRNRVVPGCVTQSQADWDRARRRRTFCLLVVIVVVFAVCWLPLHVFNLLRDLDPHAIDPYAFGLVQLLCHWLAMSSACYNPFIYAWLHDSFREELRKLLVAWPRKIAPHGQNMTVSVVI", "experiment": "Competitive binding in CHO cells transfected with human GPR10 (human 125I-PrRP31)", "settings": "for % of PrRP31, GPR10 human receptor transfected in CHO cells: affinity relative to PrRP31", "experimental": "as §1\nCHO cells transfected with human PrRP receptor GPR10 (Perkin Elmer, USA) were grown on 24-well plates coated with polyethyleneimine. The cells were grown to the optimal density of 40-80 thousand cells per well. The following agents were used for the experiment: binding buffer (25 mmol·l^−1 Tris, pH 7.4; 118 mmol·l^−1 NaCl, 10 mmol·l^−1 MgCl2, 10 mmol·l^−1 CaCl2, 5.5 mmol·l^−1 glucose, 0.5 mg/ml BSA), unlabeled analogs of PrRP (i.e. the analog being tested) at a final concentration between 10^−11 to 10^−4 mol·l^−1, and radiolabeled human ^125I-PrRP31 at a final concentration of 5×10^−11 mol·l^−1.\nas §2, §3"}, "[2]": {"settings": "CHO cells, human 125I-PrRP31, read-out: Ki, GPR10 human receptor transfected in CHO cells"}}, "note": "Read-outs that look alike come from different tables or passages of the source. Square brackets hold non-standard residues; d marks the D form. Ends that are not written are not given here. Peptide text beside a SMILES is read from it. * marks the point of attachment. 1Nal = N[C@@H](Cc1cccc2ccccc12)C(=O)O; Palmitoyl = CCCCCCCCCCCCCCCC(=O)*; Myristoyl = CCCCCCCCCCCCCC(=O)*; X1 = CONC(=O)[C@H](Cc1ccccc1)N*; Nle = CCCC[C@H](N)C(=O)O", "data": [{"compound": "CCCC[C@H](NC(=O)[C@H](CO)NC(=O)[C@H](Cc1c[nH]cn1)NC(=O)[C@H](CCC(N)=O)NC(=O)[C@H](Cc1c[nH]cn1)NC(=O)[C@H](C)NC(=O)[C@H](CCCNC(=N)N)NC(=O)[C@@H](N)CO)C(=O)N[C@@H](CCC(=O)O)C(=O)N[C@H](C(=O)N[C@@H](CCCNC(=N)N)C(=O)N[C@H](C(=O)N1CCC[C@H]1C(=O)N[C@@H](CC(=O)O)C(=O)N[C@H](C(=O)N[C@@H](CC(N)=O)C(=O)N1CCC[C@H]1C(=O)N[C@@H](C)C(=O)N[C@@H](Cc1c[nH]c2ccccc12)C(=O)N[C@@H](Cc1ccc(O)cc1)C(=O)N[C@H](C(=O)NCC(=O)N[C@@H](CCCNC(=N)N)C(=O)NCC(=O)N[C@H](C(=O)N[C@@H](CCCNC(=N)N)C(=O)N1CCC[C@H]1C(=O)N[C@H](C(=O)NCC(=O)N[C@@H](CCCNC(=N)N)C(=O)N[C@@H](Cc1cccc2ccccc12)C(N)=O)C(C)C)[C@@H](C)CC)[C@@H](C)O)[C@@H](C)CC)[C@@H](C)O)[C@@H](C)O", "note": "[Analog 10] (H-SRAHQHS[Nle]ETRTPDINPAWYTGRGIRPVGR[1Nal]-NH2)", "values": [{"measurement": "% of PrRP31, RC-4B/C rat pituitary cells", "setting": "rat PrRP receptor", "value": 4.8, "unit": "%"}, {"measurement": "% of PrRP31, GPR10 human receptor transfected in CHO cells", "setting": "[1]", "value": 11, "unit": "%"}]}, {"compound": "CCCCCCCCCCCCCC(=O)N[C@@H](CO)C(=O)N[C@@H](CCCNC(=N)N)C(=O)N[C@@H](C)C(=O)N[C@@H](Cc1c[nH]cn1)C(=O)N[C@@H](CCC(N)=O)C(=O)N[C@@H](Cc1c[nH]cn1)C(=O)N[C@@H](CO)C(=O)N[C@@H](CCCC)C(=O)N[C@@H](CCC(=O)O)C(=O)N[C@H](C(=O)N[C@@H](CCCNC(=N)N)C(=O)N[C@H](C(=O)N1CCC[C@H]1C(=O)N[C@@H](CC(=O)O)C(=O)N[C@H](C(=O)N[C@@H](CC(N)=O)C(=O)N1CCC[C@H]1C(=O)N[C@@H](C)C(=O)N[C@@H](Cc1c[nH]c2ccccc12)C(=O)N[C@@H](Cc1ccc(O)cc1)C(=O)N[C@H](C(=O)NCC(=O)N[C@@H](CCCNC(=N)N)C(=O)NCC(=O)N[C@H](C(=O)N[C@@H](CCCNC(=N)N)C(=O)N1CCC[C@H]1C(=O)N[C@H](C(=O)NCC(=O)N[C@@H](CCCNC(=N)N)C(=O)N[C@@H](Cc1cccc2ccccc12)C(N)=O)C(C)C)[C@@H](C)CC)[C@@H](C)O)[C@@H](C)CC)[C@@H](C)O)[C@@H](C)O", "note": "[Analog 11] (Myristoyl-SRAHQHS[Nle]ETRTPDINPAWYTGRGIRPVGR[1Nal]-NH2)", "values": [{"measurement": "% of PrRP31, RC-4B/C rat pituitary cells", "setting": "rat PrRP receptor", "value": 124, "unit": "%"}, {"measurement": "% of PrRP31, GPR10 human receptor transfected in CHO cells", "setting": "[1]", "value": 292, "unit": "%"}]}, {"compound": "CCCC[C@H](NC(=O)CNC(=O)[C@H](CCCNC(=N)N)NC(=O)[C@@H]1CCCN1C(=O)[C@H](Cc1ccc(O)cc1)NC(=O)[C@H](Cc1c[nH]c2ccccc12)NC(=O)[C@H](Cc1c[nH]cn1)NC(=O)[C@@H](NC(=O)[C@H](CC(=O)O)NC(=O)[C@H](C)NC(=O)[C@@H]1CCCN1C(=O)[C@H](CCCNC(=N)N)NC(=O)[C@H](CCC(N)=O)NC(=O)[C@H](Cc1c[nH]cn1)NC(=O)[C@@H](N)CO)[C@@H](C)O)C(=O)N[C@@H](Cc1ccccc1)C(=O)N1CCC[C@H]1C(=O)N[C@H](C(=O)N[C@H](C(=O)NCC(=O)N[C@@H](CCCNC(=N)N)C(=O)N[C@H](C(=O)N[C@H](C(=O)N[C@@H](C)C(=O)N[C@@H](CCCNC(=N)N)C(=O)N[C@@H](CC(N)=O)C(=O)NCC(=O)N[C@@H](CCC(=O)O)C(=O)N[C@H](C(=O)N[C@@H](CO)C(=O)N[C@@H](CCCNC(=N)N)C(=O)O)C(C)C)[C@@H](C)O)[C@@H](C)CC)[C@@H](C)CC)[C@@H](C)O", "note": "[Analog 19] (H-SHQRPADTHWYPRG[Nle]FPTIGRITARNGEVSR-OH; N-terminus and C-terminus assumed)", "values": [{"measurement": "Ki", "setting": "rat PrRP receptor; RC-4B/C cells, displacement of 125I-rat PrRP31, read-out: Ki, RC-4B/C rat pituitary cells ^25I-rat PrRP31", "value": "1320 ± 1260", "unit": "µM"}, {"measurement": "% of PrRP31, RC-4B/C rat pituitary cells", "setting": "rat PrRP receptor", "value": 0.00004, "unit": "%"}]}, {"compound": "CCCCCCCCCCCCCCCC(=O)N[C@@H](CO)C(=O)N[C@@H](CCCNC(=N)N)C(=O)N[C@H](C(=O)N[C@@H](Cc1c[nH]cn1)C(=O)N[C@@H](CCCNC(=N)N)C(=O)N[C@@H](Cc1c[nH]cn1)C(=O)N[C@@H](CO)C(=O)N[C@@H](CCSC)C(=O)N[C@@H](CCC(=O)O)C(=O)N[C@H](C(=O)N[C@@H](CCCNC(=N)N)C(=O)N[C@H](C(=O)N1CCC[C@H]1C(=O)N[C@@H](CC(=O)O)C(=O)N[C@H](C(=O)N[C@@H](CC(N)=O)C(=O)N1CCC[C@H]1C(=O)N[C@@H](C)C(=O)N[C@@H](Cc1c[nH]c2ccccc12)C(=O)N[C@@H](Cc1ccc(O)cc1)C(=O)N[C@@H](C)C(=O)N[C@@H](CO)C(=O)N[C@@H](CCCNC(=N)N)C(=O)NCC(=O)N[C@H](C(=O)N[C@@H](CCCNC(=N)N)C(=O)N1CCC[C@H]1C(=O)N[C@H](C(=O)NCC(=O)N[C@@H](CCCNC(=N)N)C(=O)N[C@@H](Cc1ccccc1)C(=O)NOC)C(C)C)[C@@H](C)CC)[C@@H](C)CC)[C@@H](C)O)[C@@H](C)CC)[C@@H](C)O", "note": "[Analog 45] (Palmitoyl-SRTHRHSMEIRTPDINPAWYASRGIRPVGR-X1)", "values": [{"measurement": "% of PrRP31, GPR10 human receptor transfected in CHO cells", "setting": "[1]", "value": 92, "unit": "%"}]}, {"compound": "CCCCCCCCCCCCCCCC(=O)NCCCC[C@H](NC(=O)[C@@H](NC(=O)[C@H](CC(=O)O)NC(=O)[C@@H]1CCCN1C(=O)[C@@H](N)[C@@H](C)O)[C@@H](C)CC)C(=O)N1CCC[C@H]1C(=O)N[C@@H](C)C(=O)N[C@@H](Cc1c[nH]c2ccccc12)C(=O)N[C@@H](Cc1ccc(O)cc1)C(=O)N[C@@H](C)C(=O)N[C@@H](CO)C(=O)N[C@@H](CCCNC(=N)N)C(=O)NCC(=O)N[C@H](C(=O)N[C@@H](CCCNC(=N)N)C(=O)N1CCC[C@H]1C(=O)N[C@H](C(=O)NCC(=O)N[C@@H](CCCNC(=N)N)C(=O)N[C@@H](Cc1ccccc1)C(N)=O)C(C)C)[C@@H](C)CC", "note": "[Analog 49] (H-TPDIK(Palmitoyl)PAWYASRGIRPVGRF-NH2)", "values": [{"measurement": "Ki", "setting": "[1]; [2]", "value": "0.00434 ± 0.00045", "unit": "µM"}, {"measurement": "% of PrRP31, GPR10 human receptor transfected in CHO cells", "setting": "[1]", "value": 90, "unit": "%"}]}, {"compound": "CCCCCCCCCCCCCCCC(=O)NCCCC[C@H](NC(=O)[C@@H]1CCCN1C(=O)[C@H](CC(N)=O)NC(=O)[C@@H](NC(=O)[C@H](CC(=O)O)NC(=O)[C@@H]1CCCN1C(=O)[C@@H](N)[C@@H](C)O)[C@@H](C)CC)C(=O)N[C@@H](Cc1c[nH]c2ccccc12)C(=O)N[C@@H](Cc1ccc(O)cc1)C(=O)N[C@@H](C)C(=O)N[C@@H](CO)C(=O)N[C@@H](CCCNC(=N)N)C(=O)NCC(=O)N[C@H](C(=O)N[C@@H](CCCNC(=N)N)C(=O)N1CCC[C@H]1C(=O)N[C@H](C(=O)NCC(=O)N[C@@H](CCCNC(=N)N)C(=O)N[C@@H](Cc1ccccc1)C(N)=O)C(C)C)[C@@H](C)CC", "note": "[Analog 50] (H-TPDINPK(Palmitoyl)WYASRGIRPVGRF-NH2)", "values": [{"measurement": "Ki", "setting": "[1]; [2]", "value": "0.00564 ± 0.00035", "unit": "µM"}, {"measurement": "% of PrRP31, GPR10 human receptor transfected in CHO cells", "setting": "[1]", "value": 69, "unit": "%"}]}, {"compound": "SRAHQHSMETRTPDINPAWYTGRGIRPVGRF-NH2 [Rat PrRP31, reference compound]", "values": [{"measurement": "Ki", "setting": "[1]", "value": "0.00389 ± 0.00112", "unit": "µM"}]}]}
